Experimental data taken from patent US20030220386A1, “Delta 1-pyrrolines for use as pesticides” (priority 2000, published 2003).

Tests used:
[1] = logP determination by HPLC (reversed-phase C 18), EEC Directive 79/831 Annex V.A8; format: physicochemical; settings: reversed-phase C18 HPLC column, pH 2.3, 0.1% aqueous phosphoric acid/acetonitrile, 43° C., read-out: log P (pH 2.3)
Description: The logP values given in the tables and preparation examples above are determined in accordance with EEC Directive 79/831 Annex V.A8 by HPLC (High Performance Liquid Chromatography) using a reversed-phase column (C 18). Temperature: 43° C.
In the acidic range, the determination is carried out at pH 2.3 using the mobile phases 0.1% aqueous phosphoric acid and acetonitrile; linear gradient from 10% acetonitrile to 90% acetonitrile.
In the neutral range, the determination is carried out at pH 7.5 using the mobile phases 0.01 molar aqueous phosphate buffer solution and acetonitrile; linear gradient from 10% acetonitrile to 90% acetonitrile.
Calibration is carried out using unbranched alkan-2-ones (of 3 to 16 carbon atoms) with known logP values (determination of the logP values by the retention times using linear interpolation between two successive alkanones).

[2] = tested on: cotton aphid (Aphis gossypii); test: Aphis gossypii test; format: in vivo; settings: 100 ppm, cotton leaves dipped
[3] = tested on: peach aphid (Myzus persicae); test: Myzus test; format: in vivo; settings: 500 ppm, cabbage leaves dipped
[4] = tested on: fruit tree spider mite (Panonychus ulmi); test: Panonychus test; format: in vivo; settings: 200 ppm, plum trees sprayed
Description: (§1) After the desired period of time, the activity in % is determined.

[5] = tested on: caterpillars of the diamondback moth (Plutella xylostella); test: Plutella test; format: in vivo; settings: 500 ppm, cabbage leaves dipped
[6] = tested on: larvae of the armyworm (Spodoptera exigua); test: Spodoptera exigua test; format: in vivo; settings: 500 ppm, cabbage leaves dipped
[7] = tested on: larvae of the armyworm (Spodoptera frugiperda); test: Spodoptera frugiperda test; format: in vivo; settings: 500 ppm, cabbage leaves dipped
[8] = tested on: greenhouse red spider mite (Tetranychus urticae); test: Tetranychus test (OP-resistant/dip treatment); format: in vivo; settings: 100 ppm, bean plants dipped
Description: as §1

Lucilia cuprina larvae = test: Blowfly larvae test/Development-inhibitory action; format: in vivo; settings: 100 ppm; mortality of the larvae after 48 hours
Description: (§2) 20 mg of active compound are dissolved in one ml of dimethyl sulphoxide. To prepare a suitable formulation, the solution of active compound is diluted with water to the concentration desired in each case.
About 20 Lucilia cuprina larvae are introduced into a test tube which contains about 1 cm^3 of horsemeat and 0.5 ml of the preparation of active compound to be tested. The activity of the preparation of active compound is determined after 48 hours as the mortality of the larvae in %.
The test tubes are then transferred into a beaker whose bottom is covered with sand. After a further 12 days, the test tubes are removed and the pupae and flies are counted. The development-inhibitory action is stated as inhibition of hatching in % (ratio of pupae to flies that have hatched) after 1.5 times the development period of an untreated control.

[9] = tested on: Amblyomma hebraeum nymphs; test: Test with polyphagous tick nymphs, dip treatment; format: in vivo; settings: nymphs immersed for 1 minute; after 4 weeks
Description: as §2
10 nymphs which have sucked themselves full are immersed for 1 minute into the preparation of active compound to be tested. The animals are transferred to Petri dishes (Ø 9.5 cm) fitted with filter discs and covered. After 4 weeks of storage in a climatized room, the mortality is determined.
100% means that none of the animals has undergone normal ecdysis. 0% means that all animals have undergone ecdysis.

[10] = tested on: larvae of the mustard beetle (Phaedon cochleariae); test: Phaedon larvae test; settings: 1000 ppm, cabbage leaves dipped

With O=S(=O)(Oc1ccc([C@H]2CCC(c3c(F)cccc3F)=N2)cc1)C(F)(F)F [I-2, (2R)-4-[5-(2,6-Difluorophenyl)-3,4-dihydro-2H-pyrrol-2-yl]phenyl trifluoromethanesulphonate] the chromatographic logP [1] was 3.55, the “Kill rate in % after 6 days” value [2] was 90% and the “Kill rate in % after 6 days” value [3] was 98%. For the same molecule, the “Kill rate in % after 7 days” value [4] was 98%, the “Kill rate in % after 6 days” value [5] was 100% and the “Kill rate in % after 6 days” value [6] was 100%. For the same molecule, the “Kill rate in % after 6 days” value [7] was 95%, the “Kill rate in % after 7 days” value [8] was 98% and the “Action in % after 48 hours” value (Lucilia cuprina larvae) was 100%. For the same molecule, the “activity (mortality / no normal ecdysis)” value [9] was “good activity” and the “Kill rate in % after 7 days” value [10] was 100%.
